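Test compounds were applied to cells in 96-well plates for 48 hours at 5 doses. At the GI50, growth is halved. TGI: concentration producing complete growth inhibition.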
What was measured:
Experiment in all cases: DTP human tumour cell line panel, 48 h
CCRF-CEM leukemia = system: CCRF-CEM leukemia
DU-145 prostate = system: DU-145 prostate
MALME-3M melanoma = system: MALME-3M melanoma
NCI-H226 lung = system: NCI-H226 lung
OVCAR-5 ovarian = system: OVCAR-5 ovarian
RPMI-8226 leukemia = system: RPMI-8226 leukemia
SF-268 CNS = system: SF-268 CNS
SK-MEL-2 melanoma = system: SK-MEL-2 melanoma
SK-MEL-5 melanoma = system: SK-MEL-5 melanoma
UACC-257 melanoma = system: UACC-257 melanoma

| SMILES | GI50 (CCRF-CEM leukemia) | TGI (CCRF-CEM leukemia) | GI50 (DU-145 prostate) | TGI (DU-145 prostate) | GI50 (MALME-3M melanoma) | TGI (MALME-3M melanoma) | GI50 (NCI-H226 lung) | TGI (NCI-H226 lung) | GI50 (OVCAR-5 ovarian) | TGI (OVCAR-5 ovarian) | GI50 (RPMI-8226 leukemia) | TGI (RPMI-8226 leukemia) | GI50 (SF-268 CNS) | TGI (SF-268 CNS) | GI50 (SK-MEL-2 melanoma) | TGI (SK-MEL-2 melanoma) | GI50 (SK-MEL-5 melanoma) | TGI (SK-MEL-5 melanoma) | GI50 (UACC-257 melanoma) | TGI (UACC-257 melanoma) |
| --- | --- | --- | --- | --- | --- | --- | --- | --- | --- | --- | --- | --- | --- | --- | --- | --- | --- | --- | --- | --- |
| CN1CCN(c2ccc3nc(-c4ccc5nc(-c6ccc(OCCC(C)(C)C)cc6)[nH]c5c4)[nH]c3c2)CC1 | 2.72 µM | 7.34 µM | 1.83 µM | 3.4 µM | 12.2 µM | 27.2 µM | 23.8 µM | 52.2 µM | 2.96 µM | 9.96 µM | 2.86 µM | 7.44 µM | 6.58 µM | 25.4 µM | 19.7 µM | 38.5 µM | 12.7 µM | 27.6 µM | 20.5 µM | 38.3 µM |
| CN(CC(=O)N(Cc1ccc(C2CCCCC2)cc1)c1ccc(C(=O)O)c(O)c1)S(=O)(=O)c1c(F)c(F)c(F)c(F)c1F | 1.84 µM | 4.69 µM | 15.6 µM | 29 µM | 2.89 µM | 12.3 µM | 18.6 µM | 41.5 µM | 17.5 µM | 32.4 µM | 2.28 µM | 6.37 µM | 7.19 µM | 20.9 µM | 2.2 µM | 4.76 µM | 14 µM | 27.3 µM | 3.93 µM | 8.53 µM |
| Nc1nc(-c2ccccc2)nc(N)c1N=O | 5.8 µM | > 100 µM | 9.5 µM | 21.6 µM | 6.71 µM | 22.9 µM | 4.87 µM | 21.2 µM | 13.7 µM | 26.8 µM | 17.9 µM | 78.7 µM | 12.3 µM | 39.2 µM | 19.5 µM | 41.6 µM | 8.21 µM | 20.8 µM | 8.75 µM | 44.3 µM |
| CC(=O)O[C@]1(C(C)=O)CC[C@H]2[C@@H]3C=C(C)C4=CC(=O)CC[C@]4(C)[C@H]3CC[C@@]21C | > 80.4 µM | > 100 µM | > 100 µM | > 100 µM | > 74 µM | > 100 µM | > 83.7 µM | > 100 µM | > 100 µM | > 100 µM | 2.78 µM | > 100 µM | > 92.8 µM | > 100 µM | > 100 µM | > 100 µM | 56.3 µM | > 100 µM | > 89.2 µM | > 100 µM |
| COc1ccc(Nc2c3ccccc3nc3ccccc23)cc1 | 1.17 µM | 10.7 µM | 2.43 µM | 12.3 µM | 1.83 µM | 9.05 µM | 1.2 µM | 3.84 µM | 6.15 µM | 23 µM | 1.26 µM | 4.66 µM | 3.63 µM | 19.1 µM | 1.29 µM | 11.3 µM | 1.1 µM | 4.2 µM | 2.71 µM | 14.4 µM |
| COc1cc(Nc2ccnc(NCCCNc3ccnc4cc(Cl)ccc34)n2)cc(OC)c1 | 1.19 µM | 3.88 µM | 3.62 µM | 12.2 µM | 2.02 µM | 3.86 µM | 2.5 µM | 9.16 µM | 2.01 µM | 6 µM | 1.56 µM | 4.11 µM | 1.8 µM | 3.88 µM | 1.91 µM | 3.54 µM | 1.51 µM | 2.84 µM | 1.84 µM | 3.44 µM |
| COc1ccc2c(c1)C(=O)c1c-2c(Nc2ccc(Cl)cc2)nc2ccccc12 | 32 µM | > 100 µM | 8.49 µM | 98.5 µM | 11 µM | 42.4 µM | 10.3 µM | 50 µM | 22.3 µM | 84.1 µM | 24.5 µM | > 100 µM | > 100 µM | > 100 µM | 17 µM | 56.1 µM | 2.84 µM | 13.2 µM | 27.8 µM | > 100 µM |
| O=C(O)c1cccc(N=Nc2c(S(=O)(=O)O)ccc3c2C(=O)c2ccccc2C3=O)c1O | – | > 100 µM | – | > 100 µM | – | > 100 µM | – | > 100 µM | – | > 100 µM | – | > 100 µM | – | > 100 µM | – | > 100 µM | – | > 100 µM | – | > 100 µM |
| CCNC(=O)c1cc2c(-c3cc(C(C)(C)O)ccc3Oc3c(C)cc(F)cc3C)cn(C)c(=O)c2[nH]1 | 2.21 µM | 23.9 µM | 4.52 µM | 18.4 µM | 2.15 µM | 15.2 µM | 2.64 µM | 14.9 µM | 1.63 µM | 16.2 µM | 0.605 µM | 8.98 µM | 3.58 µM | 18.6 µM | 2.92 µM | 15 µM | 2.09 µM | 6.89 µM | 2.27 µM | 18.5 µM |
| Nc1nc(-c2ccc(F)cc2)c(-c2ccc3ncccc3n2)s1 | > 22.1 µM | > 25 µM | 14.1 µM | > 25 µM | 19.6 µM | > 25 µM | 11.8 µM | > 25 µM | 14.1 µM | > 25 µM | > 19.8 µM | > 25 µM | 16.5 µM | > 25 µM | > 25 µM | > 25 µM | 13.1 µM | > 25 µM | > 25 µM | > 25 µM |
| COC(=O)C1=C(C)NC(C)=C(C(=O)OC)C1/C=C(Cl)/C=C/c1ccccc1 | 29.6 µM | 60 µM | 18.4 µM | 36.7 µM | 19.8 µM | 46 µM | 24.8 µM | 73.2 µM | 19.4 µM | 54.2 µM | 32.2 µM | > 100 µM | 20.9 µM | 58.8 µM | 13.4 µM | 50.4 µM | 17.2 µM | 33.4 µM | 16.8 µM | 41 µM |
| COc1ccc(OC)c(/C=C(/C)[N+](=O)[O-])c1 | 2.66 µM | > 100 µM | 1.64 µM | 3.16 µM | 1.81 µM | 3.61 µM | 13.8 µM | 27.9 µM | 3.13 µM | 10.7 µM | 0.603 µM | 3.64 µM | 2.12 µM | 5.22 µM | 2.16 µM | 4.41 µM | 3.47 µM | 13 µM | 1.69 µM | 3.22 µM |
